{
  "source": "paper PMC11396514",
  "about": "“Synthesis and Biological Evaluation of Novel Piperidine-3-Carboxamide Derivatives as Anti-Osteoporosis Agents Targeting Cathepsin K” (Molecules, 2024)",
  "key": {"[1]": {"tested_on": "OVX-induced-osteoporosis mice", "assay": "OVX-induced osteoporosis mouse model, BMD of the thighbone", "type": "in vivo", "conditions": "16 weeks; for BMD compared to the untreated model group: H-9 90, 30 and 10 mg/kg, raloxifene 5 mg/kg, intragastric", "procedure": "To evaluate the anti-osteoporosis therapeutic potential of compound H-9, an ovariectomized (OVX)-induced osteoporosis mouse model was established and employed. The study included six experimental groups: a blank control group, an untreated model group, three H-9 treatment groups (doses of 90 mg/kg, 30 mg/kg, and 10 mg/kg), and a positive control group treated with raloxifene (5 mg/kg), with 10 mice in each group.\nThe mice were randomly divided into 2 groups: a blank control group (n = 10) and a model group (n = 50). After a 7-day acclimation period, the model group mice received a bilateral ovariectomy. Subsequently, the model group was further divided into 5 subgroups (n = 10): an untreated model group, three test groups, and a raloxifene group. Ten days after surgery, the three test groups were administered compound H-9 via intragastric administration at doses of 90 mg/kg, 30 mg/kg, and 10 mg/kg, respectively. Raloxifene was given to the positive control group at a dose of 5 mg/kg. All drugs were administered for 16 weeks, with a 1-day break following every 6 consecutive days of administration. The blank control and untreated model groups received an equivalent volume of saline. At the end of the administration period, the mice were anesthetized with sodium pentobarbital, and the BMD of the thighbone was measured using an OSTEOCORE 3 Bone Density Meter (Thule, Marseille, France)."}, "[2]": {"tested_on": "Cat K levels in RAW264.7 cells", "assay": "Western blotting assay of Cat K expression", "type": "cell-based", "conditions": "H-9 at 0, 1 and 5 µM for five days, RANKL-treated RAW264.7 cells", "procedure": "To further verify the anti-bone resorption mechanism of the target compounds, a western blotting assay was carried out to assess the effect of compound H-9 on the expression of Cat K. […] RAW264.7 cells were treated with compound H-9 at concentrations of 0, 1, and 5 µM for five days, followed by cell lysis. Proteins were extracted and analyzed for Cat K levels. […] These western blotting results, combined with enzyme inhibitory activities and molecular docking analyses, confirm that the anti-bone resorption activity of compound H-9 is mediated through the inhibition of Cat K activity.\nRAW264.7 cells were seeded into 12-well plates at a density of 1 × 10^5 cells per well, and 50 ng mL^−1 of RANKL was added to induce cell differentiation. The cells were cultured at 37 °C under 5% CO2 and treated with compound H-9 (0, 1, and 5 µM) for 5 days. The cells were then harvested, lysed, and centrifuged at 12,000× g for 10 min. The supernatants were collected and mixed with loading buffer, then heated to 100 °C. Total protein concentrations were determined using a Bio-Rad protein assay ([…], Hercules, CA, USA). The samples were subjected to SDS-PAGE and transferred to a PVDF membrane. The membrane was blocked with 5% non-fat milk, and then, incubated overnight at 4 °C with primary antibody against Cat K and GAPDH. […]"}, "Recombinant human Cat K": {"target": "T1, Recombinant human Cat K (Homo sapiens, UniProt P43235)", "T1 sequence (P43235 115-329)": "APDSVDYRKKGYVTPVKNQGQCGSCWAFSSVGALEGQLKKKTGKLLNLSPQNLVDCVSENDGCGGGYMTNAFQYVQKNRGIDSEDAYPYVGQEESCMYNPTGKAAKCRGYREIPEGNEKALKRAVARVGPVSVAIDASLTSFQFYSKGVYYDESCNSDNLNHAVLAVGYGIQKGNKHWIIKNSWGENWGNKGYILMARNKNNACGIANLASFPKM", "assay": "In vitro enzymatic assay of Cat K inhibition (Z-Phe-Arg-AMC fluorescence)", "type": "biochemical", "conditions": "pH 6.0, substrate Z-Phe-Arg-AMC, read-out: Cat K IC50 (µM) ± SD", "procedure": "Compounds were tested at eight concentrations (100–0.001 µM). Recombinant human Cat K (5.5 ng/mL) in reaction buffer (50 µL) containing sodium acetate (50 mM), EDTA (2.5 mM), and DTT (1 mM) was added to a 96-well plate containing the test compounds at pH 6.0. The plate was incubated at 37 °C for 15 min, and the fluorescence (F1) was measured at 355 nm excitation and 460 nm emission using a microplate reader (Wallac 1420 Victor2, Norwalk, CA, USA). Subsequently, Z-Phe-Arg-AMC (20 µL, 10 µM) was added, and the plate was incubated at 37 °C for 1 h. Fluorescence (F2) was measured again at 355 nm excitation and 460 nm emission. The inhibition rate was calculated using the formula: inhibition (%) = [control (F2 − F1) − sample (F2–F1)]/[control (F2 − F1) − blank (F2 − F1)] × 100%. IC50 values were calculated using the SPSS 17.0 software."}, "[3]": {"assay": "Acute toxicity testing, oral", "type": "in vivo, mice", "conditions": "mouse, in vivo, 300 mg/kg/day for 7 days, mice", "procedure": "(§1) Initially, acute toxicity testing was carried out to establish appropriate dosages. Compound H-9 was administered orally at a dose of 300 mg/kg/day for 7 days."}, "mice": {"tested_on": "mice", "assay": "Acute toxicity testing, oral", "type": "in vivo", "conditions": "300 mg/kg/day for 7 days", "procedure": "as §1"}, "[4]": {"tested_on": "RANKL-induced RAW264.7 cells", "assay": "In vitro anti-bone resorption assay: area of bone resorption pits on bone slices (toluidine blue)", "type": "cell-based", "conditions": "compound 1 µM, 5 days, compared with MIV-711 / model group", "source_text": "(§2) Type I collagen, the predominant structural protein in bone, constitutes approximately 90% of the bone matrix protein [22]. During bone renewal, type I collagen is degraded, releasing short peptide fragments such as the C-terminal peptide of type I collagen (CTX-I) into the bloodstream. The concentration of CTX-I in the patient’s blood serves as a crucial biomarker for evaluating the degree of osteoporosis. In vitro, bone resorption can be assessed by measuring the concentration of CTX-I using a model in which osteoclasts are cultured on bone slices. In this experiment, the in vitro anti-bone resorption activities of the test compounds were evaluated in RANKL-induced RAW264.7 cells. This evaluation was based on the concentration of CTX-I released into the cell culture medium due to bone degradation, as well as the area of bone resorption pits formed on bone slices.\n(§3) RAW264.7 cells, obtained from the cell bank of the Chinese Academy of Medical Sciences, were seeded into 96-well plates at a density of 1 × 10^5 cells per well with bovine femur slices. To induce cell differentiation, 50 ng mL^−1 of RANKL was added to the RAW264.7 cells. The cells were cultured for 5 days at 37 °C under 5% CO2 with the test compounds at a concentration of 1 µM. The culture supernatant was collected to measure the CTX-I concentration using ELISA. The bone slices were fixed with 2.5% glutaraldehyde for 7 min, then washed 3 times with 0.25 mol/L ammonium hydroxide, dehydrated using a series of ethanol solutions (40%, 75%, 80%, 95%, and anhydrous ethanol), and dried naturally. After staining with 1% toluidine blue solution at room temperature for 3–4 min, the bone slices were rinsed with distilled water and analyzed using an optical microscope. Bone resorption areas were calculated using image analysis software (iBright CL1500, Redmond, WA, USA)."}, "[5]": {"tested_on": "RANKL-induced RAW264.7 cells", "assay": "In vitro anti-bone resorption assay: CTX-I released into culture medium (ELISA), cells on bovine femur slices", "type": "cell-based", "source_text": "as §2, §3"}},
  "note": "Entries after “also recorded” stand apart in the source; their conditions may differ.",
  "data": [
    {"compound": "O=C(c1ccc(OCCN2CCCCC2)cc1)c1c(-c2ccc(O)cc2)sc2cc(O)ccc12", "note": "[raloxifene, reference compound]", "values": [
      {"measurement": "BMD compared to the untreated model group", "setting": "[1]", "result": "significant increases in BMD"}
    ]},
    {"compound": "COc1ccc(S(=O)(=O)N2CCC[C@@H](C(=O)NCc3ccc(Cl)cc3)C2)cc1", "note": "[Compound H-9, (R)-N-(4-chlorobenzyl)-1-((4-methoxyphenyl)sulfonyl)piperidine-3-carboxamide]", "values": [
      {"measurement": "Effect on Cat K levels (western blot)", "setting": "[2]", "result": "dose-dependent decrease in Cat K levels; also recorded: effectively downregulated cathepsin K expression; also recorded: decreased Cat K levels"},
      {"measurement": "IC50", "setting": "Recombinant human Cat K", "result": "0.08 ± 0.03", "unit": "µM"},
      {"measurement": "LD50 at 7 days", "setting": "[3]", "result": "> 300", "unit": "mg/kg"},
      {"measurement": "Mouse deaths", "setting": "mice", "result": "No mouse deaths"},
      {"measurement": "BMD compared to the untreated model group", "setting": "[1]", "result": "increased the bone mineral density; also recorded: significant increases in BMD"},
      {"measurement": "Efficacy on BMD compared to the positive control", "setting": "[1]; H-9 at 90 mg/kg vs raloxifene 5 mg/kg", "result": "comparable to that of the positive control"},
      {"measurement": "Anti-bone resorption activity by area of bone resorption pits (in words)", "setting": "[4]", "result": "comparable to that of MIV-711"},
      {"measurement": "CTX-I concentration in the cell culture medium", "setting": "[5]; compound 1 µM, 5 days, ELISA", "result": "20.46 ± 3.67", "unit": "nM"},
      {"measurement": "CTX-I concentration compared to the model group (in words)", "setting": "[5]; compound 1 µM, 5 days, vs untreated model group", "result": "reduced CTX-I concentration"},
      {"measurement": "Anti-bone resorption effects in vitro compared to MIV-711 (summary statement)", "setting": "[5]; in vitro, RAW264.7 cells", "result": "comparable to those of MIV-711; also recorded: comparable to that of MIV-711"}
    ]}
  ]
}
